Columns and labels:
[1] = molecular target: GluN1/GluN2C (Rattus norvegicus, UniProt Q00961); conditions: percent of control, 100 μM glutamate and 30 μM glycine
[2] = test system: GluN2C- and GluN2D-containing receptors; assay: TEVC recordings, values stated in text jointly for GluN2C/D; assay type: cell-based, rat; conditions: for activity at GluN2C/D in words: TEVC evaluation; for p(doubling conc.) at GluN2C/D / pEC50 at GluN2C/D: value or range over GluN2C and GluN2D; for maximum potentiation at GluN2C/D: fitted max, range over GluN2C and GluN2D, saturating co-agonists
[3] = molecular target: GluN1/GluN2D (Rattus norvegicus, UniProt Q62645); conditions: percent of control, 100 μM glutamate and 30 μM glycine
[4] = test system: GluN2A- or GluN2B-containing receptors; assay: TEVC recordings, values stated jointly for GluN2A/B; assay type: cell-based, rat; conditions: 10 or 30 μM compound
[5] = molecular target: GluN1/GluN2C (Rattus norvegicus, UniProt P35439+Q00961); assay: cell-based
[6] = test system: α4β2-nACh; assay type: cell-based; conditions: 10 μM compound, saturating agonist
[7] = 20 mg/kg i.p., cited from earlier work
[8] = plasma protein binding by equilibrium dialysis; assay type: in vitro ADME, rat; conditions: 1 μM of drug
[9] = stability as a powder or DMSO stock; assay type: physicochemical; conditions: room temperature under regular atmosphere; longest time tested
[10] = pharmacokinetics in mice, i.p. dosing, plasma and brain by LC/MS-MS; conditions: male, C57Bl/6, mouse, ip, 10 mg/kg
[11] = molecular target: GluN2A-containing receptors; conditions: cited from earlier work

GluN1/GluN2C (Rattus norvegicus, UniProt P35439+Q00961), sequence (Q00961 20-1237, other chains not shown): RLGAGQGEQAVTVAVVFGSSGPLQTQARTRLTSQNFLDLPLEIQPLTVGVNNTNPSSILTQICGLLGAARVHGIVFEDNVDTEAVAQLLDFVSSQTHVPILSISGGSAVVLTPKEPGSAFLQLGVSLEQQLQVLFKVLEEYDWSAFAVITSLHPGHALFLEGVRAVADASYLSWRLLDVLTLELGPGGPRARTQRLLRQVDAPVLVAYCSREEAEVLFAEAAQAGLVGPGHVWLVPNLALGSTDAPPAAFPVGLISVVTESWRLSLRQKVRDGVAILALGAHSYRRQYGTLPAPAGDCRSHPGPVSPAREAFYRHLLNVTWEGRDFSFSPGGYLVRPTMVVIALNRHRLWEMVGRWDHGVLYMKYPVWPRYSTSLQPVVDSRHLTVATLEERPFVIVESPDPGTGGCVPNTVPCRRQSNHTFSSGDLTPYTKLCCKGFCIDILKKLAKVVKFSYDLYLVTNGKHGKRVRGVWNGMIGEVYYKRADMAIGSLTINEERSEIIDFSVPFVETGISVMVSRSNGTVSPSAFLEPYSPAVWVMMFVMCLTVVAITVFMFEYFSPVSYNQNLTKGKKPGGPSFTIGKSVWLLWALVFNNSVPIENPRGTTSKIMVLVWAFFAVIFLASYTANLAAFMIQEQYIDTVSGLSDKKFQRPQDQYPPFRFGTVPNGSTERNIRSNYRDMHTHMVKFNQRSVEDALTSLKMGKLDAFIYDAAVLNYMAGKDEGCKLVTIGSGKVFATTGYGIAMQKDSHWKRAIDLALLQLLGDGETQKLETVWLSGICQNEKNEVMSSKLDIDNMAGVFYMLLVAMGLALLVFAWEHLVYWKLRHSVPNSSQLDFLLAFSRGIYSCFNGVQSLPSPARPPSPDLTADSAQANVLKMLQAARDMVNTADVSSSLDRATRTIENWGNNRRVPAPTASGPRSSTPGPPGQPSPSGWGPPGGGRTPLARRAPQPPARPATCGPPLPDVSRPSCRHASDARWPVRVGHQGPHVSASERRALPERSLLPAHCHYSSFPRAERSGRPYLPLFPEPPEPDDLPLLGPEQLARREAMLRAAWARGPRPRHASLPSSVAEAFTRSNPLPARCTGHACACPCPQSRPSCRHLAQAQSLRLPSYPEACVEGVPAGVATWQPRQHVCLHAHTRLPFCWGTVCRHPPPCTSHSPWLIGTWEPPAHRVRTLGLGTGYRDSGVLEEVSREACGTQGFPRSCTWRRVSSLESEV
GluN1/GluN2C (Rattus norvegicus, UniProt Q00961), sequence (Q00961 20-1237, other chains not shown): as above
GluN1/GluN2D, sequence (Q62645 28-1323, other chains not shown): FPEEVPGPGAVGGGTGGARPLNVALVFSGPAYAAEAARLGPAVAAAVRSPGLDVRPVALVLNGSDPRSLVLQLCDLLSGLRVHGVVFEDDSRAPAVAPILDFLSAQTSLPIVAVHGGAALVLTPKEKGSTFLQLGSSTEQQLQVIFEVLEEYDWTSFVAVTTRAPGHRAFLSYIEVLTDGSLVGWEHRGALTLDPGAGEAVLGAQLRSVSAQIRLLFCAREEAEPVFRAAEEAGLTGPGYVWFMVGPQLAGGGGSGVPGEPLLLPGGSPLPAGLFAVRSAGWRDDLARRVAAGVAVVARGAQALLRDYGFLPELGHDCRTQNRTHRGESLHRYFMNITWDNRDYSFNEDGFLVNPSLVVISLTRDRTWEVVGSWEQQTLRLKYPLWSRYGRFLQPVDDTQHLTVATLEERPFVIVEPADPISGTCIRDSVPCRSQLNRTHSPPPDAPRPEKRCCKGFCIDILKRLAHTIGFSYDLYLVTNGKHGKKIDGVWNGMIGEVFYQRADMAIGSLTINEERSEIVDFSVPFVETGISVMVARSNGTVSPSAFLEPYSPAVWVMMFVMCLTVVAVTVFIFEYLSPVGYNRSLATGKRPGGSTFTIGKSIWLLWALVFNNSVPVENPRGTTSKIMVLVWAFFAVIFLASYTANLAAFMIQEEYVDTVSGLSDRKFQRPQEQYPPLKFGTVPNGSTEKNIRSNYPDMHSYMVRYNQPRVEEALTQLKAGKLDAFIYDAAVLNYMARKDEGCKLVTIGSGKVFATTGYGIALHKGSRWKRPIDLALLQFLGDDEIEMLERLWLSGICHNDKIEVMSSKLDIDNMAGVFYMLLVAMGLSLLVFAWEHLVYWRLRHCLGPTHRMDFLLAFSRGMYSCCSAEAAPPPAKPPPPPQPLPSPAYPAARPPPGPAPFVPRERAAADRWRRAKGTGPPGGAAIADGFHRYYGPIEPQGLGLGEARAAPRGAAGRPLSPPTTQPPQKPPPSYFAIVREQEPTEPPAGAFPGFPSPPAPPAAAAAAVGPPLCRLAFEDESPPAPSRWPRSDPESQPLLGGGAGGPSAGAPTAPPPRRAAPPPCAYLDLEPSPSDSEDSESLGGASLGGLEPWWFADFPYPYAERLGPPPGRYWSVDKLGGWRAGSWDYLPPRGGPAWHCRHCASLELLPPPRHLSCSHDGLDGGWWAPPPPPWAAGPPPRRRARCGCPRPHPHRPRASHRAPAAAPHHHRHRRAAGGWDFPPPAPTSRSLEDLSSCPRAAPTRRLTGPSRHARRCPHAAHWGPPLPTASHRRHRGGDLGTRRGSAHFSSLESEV

Compound: 1-((4-Ethoxyphenoxy)methyl)-2-(3-(trifluoromethyl)benzyl)-1,2-dihydropyrrolo[1,2-a]pyrazine-3(4H)-thione [compound 32]
- max (%) GluN2C, pEC50 ND: percent potentiation at 30 μM drug [1]: ND (120) %
- activity at GluN2C/D in words [2]: complete loss of activity
- max (%) GluN2D, pEC50 ND: percent potentiation at 30 μM drug [3]: ND (110) %

Compound: COc1ccc(OCC2c3ccc(OC)cc3CC(=O)N2CCCC(F)(F)F)cc1 (stereo not shown) [12f, 6-Methoxy-1-((4-methoxyphenoxy)methyl)-2-(4,4,4-trifluorobutyl)-1,2-dihydroisoquinolin-3(4H)-one]
- p(doubling conc.) at GluN2C/D [2]: 5.0–5.1

Compound: COc1ccc(OCC2c3ccc(OC)cc3CC(=O)N2CC(F)(F)F)cc1 (stereo not shown) [12g, 6-Methoxy-1-((4-methoxyphenoxy)methyl)-2-(2,2,2-trifluoroethyl)-1,2-dihydroisoquinolin-3(4H)-one]
- pEC50 at GluN2C/D [2]: < 4.5

Compound: COc1ccc(OCC2c3cc(OC)c(OC)cc3CC(=O)N2Cc2cccc(Cl)c2)cc1 (stereo not shown) [12m, 2-(3-Chlorobenzyl)-6,7-dimethoxy-1-((4-methoxyphenoxy)-methyl)-1,4-dihydroisoquinolin-3(2H)-one]
- activity at GluN2A/B in words [4]: no activity

Compound: COc1cc2c(cc1OC)C(CO)N(C(=O)c1cccc(C(F)(F)F)c1)CC2 (stereo not shown) [17b, (1-(Hydroxymethyl)-6,7-dimethoxy-3,4-dihydroisoquinolin-2(1H)-yl)(3-(trifluoromethyl)phenyl)methanone]
- activity at GluN2C/D in words [2]: not tolerated

Compound: COc1ccc(OCC2c3cc(OC)c(OC)cc3CCN2C(=O)c2cccc(Cl)c2)s1 (stereo not shown) [18a, (3-Chlorophenyl)(6,7-dimethoxy-1-(((5-methoxythiophen-2-yl)-oxy)methyl)-3,4-dihydroisoquinolin-2(1H)-yl)methanone]
- activity at GluN2C/D in words [2]: not tolerated

Compound: COc1cc2c(cc1OC)C(COC1CCOCC1)N(C(=O)c1cccc(C(F)(F)F)c1)CC2 (stereo not shown) [18d, (6,7-Dimethoxy-1-(((tetrahydro-2H-pyran-4-yl)oxy)methyl)-3,4-dihydroisoquinolin-2(1H)-yl)(3-(trifluoromethyl)phenyl)methanone]
- activity at GluN2C/D in words [2]: not tolerated

Compound: COc1ccc(OCC2c3sccc3CCN2C(=O)c2cccc(Cl)c2)cc1 (stereo not shown) [25a, (3-Chlorophenyl)(7-((4-methoxyphenoxy)methyl)-4,7-dihydrothieno[2,3-c]pyridin-6(5H)-yl)methanone]
- maximum potentiation at GluN2C/D [2]: 280–350%
- p(doubling conc.) at GluN2C/D [2]: 5.3–5.6
- activity at GluN2A/B in words [4]: no activity

Compound: COc1ccc(OCC2c3cc(OC)sc3CCN2C(=O)c2cccc(Cl)c2)cc1 (stereo not shown) [25d, (3-Chlorophenyl)(2-methoxy-4-((4-methoxyphenoxy)methyl)-6,7-dihydrothieno[3,2-c]pyridin-5(4H)-yl)methanone]
- EC50 [5]: 5010 nM
- Emax ([5]; read-out: max (%) GluN2C): 220%

Compound: COc1ccc(OCC2c3occc3CCN2C(=O)c2cccc(Cl)c2)cc1 (stereo not shown) [25f, (3-Chlorophenyl)(7-((4-methoxyphenoxy)methyl)-4,7-dihydrofuro[2,3-c]pyridin-6(5H)-yl)methanone]
- p(doubling conc.) at GluN2C/D [2]: 5.4–5.5

Compound: COc1ccc(OCC2c3cnn(C)c3CCN2C(=O)c2cccc(Cl)c2)cc1 (stereo not shown) [25g, (3-Chlorophenyl)(4-((4-methoxyphenoxy)methyl)-1-methyl-1,4,6,7-tetrahydro-5H-pyrazolo[4,3-c]pyridin-5-yl)methanone]
- pEC50 at GluN2C/D [2]: < 4.5

Compound: COc1ccc(OCC2c3ccsc3CCN2C(=O)c2cccc(Cl)c2)cc1 (stereo not shown) [25h, (3-Chlorophenyl)(4-((4-methoxyphenoxy)methyl)-6,7-dihydrothieno[3,2-c]pyridin-5(4H)-yl)methanone]
- maximum potentiation at GluN2C/D [2]: 330–340%

Compound: COc1ccc(OCC2c3cccn3CCN2C(=O)c2cccc(Cl)c2)cc1 (stereo not shown) [25i, (3-Chlorophenyl)(1-((4-methoxyphenoxy)methyl)-3,4-dihydropyrrolo[1,2-a]pyrazin-2(1H)-yl)methanone]
- p(doubling conc.) at GluN2C/D [2]: 5.8–5.9

Compound: COc1ccc(OCC2c3cccn3CC(=O)N2Cc2cccc(C(F)(F)F)c2)cc1 (stereo not shown) [31a, 1-((4-Methoxyphenoxy)methyl)-2-(3-(trifluoromethyl)benzyl)-1,2-dihydropyrrolo[1,2-a]pyrazin-3(4H)-one]
- inhibition of α4β2-nACh current response [6]: > 50%
- p(doubling conc.) at GluN2C/D [2]: 5.9–6.1

Compound: COc1ccc(OCC2c3cc(OC)c(OC)cc3CCN2C(=O)c2cccc(Cl)c2)cc1 (stereo not shown) [CIQ, (3-chlorophenyl)(6,7-dimethoxy-1-((4-methoxyphenoxy)-methyl)-3,4-dihydroisoquinolin-2(1H)-yl)methanone]
- Cmax (ng/mL), plasma ([7]; 1:4:5 dimethylacetamide:PEG400:(5% dextrose in water)): 2090 ± 20 ng/mL
- t1/2 (h), plasma [7]: 1.35 ± 0.12 h
- bound to rat plasma protein [8]: > 99.9%

Compound: COc1ccc(OCC2c3cccn3CC(=O)N2Cc2cccc(F)c2)cc1 (stereo not shown) [EU-1180–453, 2-(3-Fluorobenzyl)-1-((4-methoxyphenoxy)methyl)-1,2-dihydropyrrolo[1,2-a]pyrazin-3(4H)-one]
- stable as a powder or a DMSO stock [9]: at least 30 days
- Tmax ([10]; brain and plasma): 15 min
- Cmax ([10]; plasma): 695 ± 111 ng/mL
- bound to rat plasma protein [8]: 98.7%

Compound: N#C[C@@H]1C[C@H]1c1c(Cl)ccc2nc(Cn3nc(C(F)(F)F)cc3Cl)cc(=O)n12 [GNE-5729]
- EC50 [11]: 37 nM

Reference: paper PMC7961853 (Journal of medicinal chemistry, 2020)
